Reference: patent publication US9458113B2 (Boehringer Ingelheim International GmbH, priority 2014, dated 2016)

Each compound was assayed against Human neutrophil elastase (Homo sapiens (Human), UniProt P08246) (assay: Human Neutrophil Elastase Assay). Settings: substrate MeOSuc-Ala-Ala-Pro-Val-AMC 250 μM, pH 7.5.
Sequence of Human neutrophil elastase (P08246 30-247): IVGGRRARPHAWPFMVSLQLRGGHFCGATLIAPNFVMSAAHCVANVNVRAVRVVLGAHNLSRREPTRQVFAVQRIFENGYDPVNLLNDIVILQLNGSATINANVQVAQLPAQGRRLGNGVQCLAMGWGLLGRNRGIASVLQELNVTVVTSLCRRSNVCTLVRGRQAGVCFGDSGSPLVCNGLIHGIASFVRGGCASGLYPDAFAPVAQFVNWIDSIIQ
Assay type: biochemical
Description: The following buffers were used: Compound buffer: 100 mM Tris, 500 mM NaCl, adjusted to pH 7.5; Assay buffer: 100 mM Tris, 500 mM NaCl, adjusted to pH 7.5, containing 0.01% BSA.
Assay conditions: Test compounds were prediluted in DMSO and subsequently in compound buffer (5% DMSO final). […] After inactivation of the enzyme, fluorescence intensities were measured at 380 nm excitation and 460 nm emission wavelengths.
Each plate contains wells with a high value control (DMSO+enzyme+substrate) and wells with a low value control (DMSO+inactivated enzyme+substrate). IC50 values were estimated using a sigmoidal concentration response curve with variable slope. Means of low values were taken as 0%, means of high values as 100%.
Work on CC1CN(C(=O)c2cc(C#N)ccc2C2C3=C(CCC3=O)N(c3cccc(C(F)(F)F)c3)C(=O)N2C)CCN1 (centres unmarked) [Example 4.16] yielded an IC50 of 10.8 nM. C#CCNC(=O)c1cc(C#N)ccc1C1C2=C(CCC2=O)N(c2cccc(C(F)(F)F)c2)C(=O)N1C (centres unmarked) [Example 1.4] gave an IC50 of 3.7 nM. CN1C(=O)N(c2cccc(C(F)(F)F)c2)C2=C(C(=O)CC2)C1c1ccc(C#N)cc1C(=O)NC1CCOC1 (centres unmarked) [Example 1.18] gave an IC50 of 6.9 nM. For CN1C(=O)N(c2cccc(C(F)(F)F)c2)C2=C(C(=O)CC2)C1c1ccc(C#N)cc1C(=O)NCc1cccnn1 (centres unmarked) [Example 1.50], the IC50 was 2.9 nM. In the case of CN1C(=O)N(c2cccc(C(F)(F)F)c2)C2=C(C(=O)CC2)C1c1ccc(C#N)cc1C(=O)NCc1nnnn1C (centres unmarked) [Example 1.62], the IC50 is reported as 2.5 nM. For CN1C(=O)N(c2cccc(C(F)(F)F)c2)C2=C(C(=O)CC2)C1c1ccc(C#N)cc1C(=O)NCc1cncn1C (centres unmarked) [Example 1.52], the IC50 was 4.2 nM. For CN1C(=O)N(c2cccc(C(F)(F)F)c2)C2=C(C(=O)CC2)C1c1ccc(C#N)cc1C(=O)N[C@H]1C[C@@H]1N (some centres unmarked) [Example 4.13], the IC50 was 5.6 nM. Compound Cc1noc(-c2cc(C#N)ccc2C2C3=C(CCC3=O)N(c3cccc(C(F)(F)F)c3)C(=O)N2C)n1 (centres unmarked) [Example 13.2, 4-[3-Methyl-2,5-dioxo-1-(3-trifluoromethyl-phenyl)-2,3,4,5,6,7-hexahydro-1H-cyclopentapyrimidin-4-yl]-3-(3-methyl-[1,2,4]oxadiazol-5-yl)-benzonitrile] has an IC50 of 2.8 nM. CN1C(=O)N(c2cccc(C(F)(F)F)c2)C2=C(C(=O)CC2)C1c1ccc(C#N)cc1C(=O)NCCN (centres unmarked) [Example 4.3] was tested, and the IC50 was 3.1 nM. With CC(NC(=O)c1cc(C#N)ccc1C1C2=C(CCC2=O)N(c2cccc(C(F)(F)F)c2)C(=O)N1C)c1ccco1 (centres unmarked) [Example 1.51] the IC50 was 6.6 nM. CN1CCN(C(=O)c2cc(C#N)ccc2C2C3=C(CCCC3=O)N(c3cccc(C(F)(F)F)c3)C(=O)N2C)CC1 (centres unmarked) [Example 6.2] gave an IC50 of 5.1 nM. For CN1C(=O)N(c2cccc(C(F)(F)F)c2)C2=C(C(=O)CC2)C1c1ccc(C#N)cc1C(=O)NCc1ccncc1 (centres unmarked) [Example 1.48], the IC50 was 4.1 nM. CN1C(=O)N(c2cccc(C(F)(F)F)c2)C2=C(C(=O)CC2)C1c1ccc(C#N)cc1C(=O)NCc1ccnnc1 (centres unmarked) [Example 1.49] gave an IC50 of 5 nM. With CC(=O)N1CCN(C(=O)c2cc(C#N)ccc2C2C3=C(CCC3=O)N(c3cccc(C(F)(F)F)c3)C(=O)N2C)CC1 (centres unmarked) [Example 1.85] the IC50 was 4.6 nM. CNCCNC(=O)c1cc(C#N)ccc1C1C2=C(CCC2=O)N(c2cccc(C(F)(F)F)c2)C(=O)N1C (centres unmarked) [Example 4.4] was tested, and the IC50 was 4.7 nM. CN1C(=O)N(c2cccc(C(F)(F)F)c2)C2=C(C(=O)CC2)C1c1ccc(C#N)cc1C(=O)N1CC(O)C1 (centres unmarked) [Example 1.11] showed an IC50 of 2.5 nM. CN1C(=O)N(c2cccc(C(F)(F)F)c2)C2=C(C(=O)CC2)C1c1ccc(C#N)cc1-c1ccc2c(ccn2C)c1 (centres unmarked) [Example 11.14] was tested, and the IC50 was 6 nM. CN1C(=O)N(c2cccc(C(F)(F)F)c2)C2=C(C(=O)CC2)C1c1ccc(C#N)cc1C(=O)NCc1ccn(C)n1 (centres unmarked) [Example 1.53] gave an IC50 of 2.2 nM. CN1C(=O)N(c2cccc(C(F)(F)F)c2)C2=C(C(=O)CC2)C1c1ccc(C#N)cc1C(=O)N1CCn2ncnc2C1 (centres unmarked) [Example 1.70] gave an IC50 of 1.9 nM. In the case of CN1C(=O)N(c2cccc(C(F)(F)F)c2)C2=C(C(=O)CC2)C1c1ccc(C#N)cc1C(=O)NCC(F)(F)F (centres unmarked) [Example 1.21], the IC50 is reported as 7.1 nM. CN1C(=O)N(c2cccc(C(F)(F)F)c2)C2=C(C(=O)CCC2)C1c1ccc(C#N)cc1C(=O)N1CCOCC1 (centres unmarked) [Example 6.1] showed an IC50 of 2.9 nM. For CC(C)N1CCN(C(=O)c2cc(C#N)ccc2C2C3=C(CCC3=O)N(c3cccc(C(F)(F)F)c3)C(=O)N2C)CC1 (centres unmarked) [Example 3.4], the IC50 was 7.3 nM. CN1C(=O)N(c2cccc(C(F)(F)F)c2)C2=C(C(=O)CC2)C1c1ccc(C#N)cc1C(=O)NC1CCS(=O)(=O)C1 (centres unmarked) [Example 1.28] gave an IC50 of 4.3 nM.
